Measurements reported in US20220047720A1, “CONJUGATES AND NANOPARTICLES OF HYALURONIC ACID AND EPIGALLOCATECHIN-3-O-GALLATE AND USES THEREOF” (Agency for Science, Technology and Research, priority 2018, published 2022).
Where a name gives a salt, the structure may show the parent alone.

Legend:
MV-4-11 cells = assay: In vitro anti-leukemic activity, CellTiter-Glo assay, and median-effect combination index; assay type: cell-based; settings: 3 days
Method: (§3) MOLM-14 and MV-4-11 cells (ATCC, USA) were maintained in RPMI 1640 media supplemented with 10% (v/v) fetal bovine serum (FBS) and 1% (v/v) penicillin/streptomycin. The cells seeded on white-walled 96-well plates (1×10^4 cells per well) were incubated in 100 μL of 10% FBS-supplemented media containing either sunitinib- or sorafenib-loaded nanoparticles and the respective free drugs at various concentrations. […] After treatment for 3 days, 100 μL of the CellTiter-Glo assay reagent was added to each well of the plates. After incubation for 10 min at 25° C., cellular luminescence was measured using a Tecan Infinite 200 microplate reader (Tecan Group, Switzerland). Results were expressed as percentages of the luminescence signal of analysed cells relative to untreated controls.

MOLM-14 cells = assay: as above; settings: 3 days
Method: as §3

HEK293 cells = assay: In vitro cell viability assay (CellTiter-Glo), normal cells; assay type: cell-based, human; settings: 72 h
Method: (§1) The human AML cell line HL60, human embryonic kidney cell line HEK293 and primary human umbilical vein endothelial (HUVEC) cells were purchased from the American Type Culture Collection (ATCC). The human AML cell lines NB4 was kindly donated by the Cancer Science Institute, Singapore. All the AML cells were cultured in RPMI 1640 medium supplemented with 10% fetal bovine serum (FBS) and maintained in density of 2×10^5 to 1×10^6 cells/mL. HEK293 cells were cultured in DMEM medium supplemented with 10% FBS while HUVEC cells were maintained in EBM™-2 Endothelial Cell Growth Basal Medium supplemented with endothelial cell growth medium SingleQuots™ supplements and growth factors. All the cells were maintained in a humid incubator with 5% CO2 at 37° C.
(§2) All cells (HL60, NB4, HEK293 and HUVEC cells) were seeded at 1×10^4 cells per […] per well in 96-well plates. […] After drug treatment, the cell viability was evaluated using the CellTiter-Glo™ Luminescent Cell Viability Assay Kit (Promega, Madison, Wis.) following the manufacturer's instructions. The luminescence from each well was measured using a Tecan Infinite microplate reader (Tecan Group, Switzerland). The final cell viability values were expressed as percentages derived from the luminescence intensity from the treated cells relative to untreated cells. […]

HUVEC cells = assay: as above; assay type: cell-based, human; settings: 72 h
Method: as §1, §2

[1] = Dispersion stability in water (appearance); assay type: physicochemical; settings: suspended in water at the same sorafenib concentration
Description: Based on the drug loading capacity and particle size, three compositions were selected for in vitro anti-leukemic activity studies (in Example 3) and were named as Sora-NP-1 to Sora-NP-3 (Table 2). Among them, Sora-NP-1 had the smallest particle size with the lowest sorafenib loading capacity. […] This provides indirect evidence that sorafenib molecules were stably encapsulated in the interior of Sora-NP. The excellent dispersion stability of Sora-NP compositions would be beneficial for their clinical applications.

[2] = test system: patient-derived AML cells named Leu 14; assay: Patient-derived AML xenograft mouse model; assay type: in vivo
Method: All animal experiments were performed according to the protocols approved by IACUC at the Biological Resource Centre, Singapore. A pre-clinical patient-derived liquid xenograft mouse model was established based on a previous report (Z. Her, et al., J. Hematol. Oncol. 2017, 10, 162). Briefly, NOD-scid II2rg^−/− (NSG) newborn pups were sub-lethally irradiated at 1 Gy and engrafted with patient-derived AML cells named Leu 14. When the proportion of human CD45^+ cells in peripheral blood reached around 10-15%, the mice were randomly divided into 3 groups. The first group received intravenous injections of isotonic dextrose solution containing Sora-NP-1 at a sorafenib dose of 0.4 mg kg^−1 twice weekly for 4 weeks. For comparison, another group of mice received intravenous injections of free sorafenib solution prepared in saline-DMSO mixture (95:5, v/v) at an equivalent dose. […] At selected time points, the proportion of human CD45^+ cells in the peripheral blood, spleen and bone marrow was examined by flow cytometry analysis using a LSR II flow cytometer (BD Biosciences).

NB4 cells = assay: Quantitative evaluation of differentiation in AML cells (CD11b, CD14, CD15 by flow cytometry); assay type: cell-based, human; settings: three days, ATRA, PMA (100 ng/mL), A3D8 (0.6 μg/mL), EGCG (38 μM), HA equivalent
Method: AML cells were seeded at 1×10^5 cells in 1 mL per well in 24-well plates and were incubated for 2 h with 5% CO2 at 37° C. […] ATRA (1 mM), PMA (100 ng/mL) and A3D8 (0.6 μg/mL) were included as positive controls. After three days of incubation, the cells were harvested and examined for signs of differentiation by assessing cell surface antigen expression. To label the cell surface antigens, the cells were suspended in PBS (pH 7.4) containing 0.2% (v/v) BSA and then incubated at 4° C. for 30 min with mouse anti-human FITC-conjugated CD11b, Cy7-conjugated CD14 and Cy5-conjugated CD15 antibodies (2 μg/mL each). Mouse IgG1 isotype antibody was used as control. After that, the cells were washed three times with PBS containing 0.2% (v/v) BSA and the level of antibody binding was determined by flow cytometry using a fluorescence-activated cell sorter BD LSR II (BD Biosciences, Calif.). Each measurement comprised of acquisition of at least 1×10^4 cells and the analyses were considered as informative when adequate numbers of events (>100) were collected in the enumeration gates. To quantify the percentage of antigen-expressing cells, the cells were defined to be positive for the antigens if they fell within the gating region pre-set to include <2% of untreated control cells.

[3] = equivalent sunitinib concentrations
[4] = equivalent sorafenib concentrations

With `CCN(CC)CCNC(=O)c1c(C)[nH]c(/C=C2\C(=O)Nc3ccc(F)cc32)c1C` [free sunitinib, Sunitinib malate] the “order of effectiveness (anti-leukemic activity)” value (from here on “order of effectiveness”) (MV-4-11 cells; [3]) was “Suni-NP-1>Suni-NP-2>free sunitinib>Suni-NP-3>Suni-NP-4” and the “order of effectiveness” value (MOLM-14 cells; [3]) was “Suni-NP-1>Suni-NP-2>free sunitinib>Suni-NP-3>Suni-NP-4”.

In the case of Epigallocatechin-3-gallate [EGCG], the “EGCG equivalent concentration with greater toxicity than HA-EGCG (B)” value (HEK293 cells) is reported as 76 µM and the “EGCG equivalent concentration range with greater toxicity than HA-EGCG (B)” value (HUVEC cells) is reported as 15 to 76 µM.

In the case of `CNC(=O)c1cc(Oc2ccc(NC(=O)Nc3ccc(Cl)c(C(F)(F)F)c3)cc2)ccn1` [free sorafenib, Sorafenib tosylate], the “Appearance of dispersion in water” value [1] is reported as “heavily flocculated and eventually precipitated”, the “order of effectiveness” value (MV-4-11 cells; [4]) is reported as “Sora-NP-1>Sora-NP-2>Sora-NP-3>free sorafenib” and the “AML cell proliferation in the peripheral blood (human CD45+ cells)” value ([2]; i.v., sorafenib dose 0.4 mg kg^−1 twice weekly for 4 weeks, versus untreated control) is reported as “only a slight delay of AML progression”. For the same molecule, the “time at which treated mice started to die” value ([2]; sorafenib dose 0.4 mg kg^−1) was 12 to 14 days, the “cells eradicated / reduction of the cell viability” value (MOLM-14 cells; 200 nM sorafenib) was about 14% and the “order of effectiveness” value (MOLM-14 cells; [4]) was “Sora-NP-1>Sora-NP-2>Sora-NP-3>free sorafenib”.

In the case of `CC1=C(/C=C/C(C)=C/C=C/C(C)=C/C(=O)O)C(C)(C)CCC1` [ATRA, all-trans retinoic acid], the “differentiation marker expression” value (NB4 cells) is reported as “greatest increase in the three antigen expression levels and the proportion of antigen-expressing cells”.
